Consider 16 molecules from US10206394B2, “Herbicidal compounds” (Syngenta Participations AG, priority 2014, dated 2019).

What all share (assay): Glasshouse assay for herbicidal activity (pre- and post-emergence), percentage phytotoxicity
Format in all cases: in vivo

One test has as its system Avena fatua (AVEFA). Conditions: Avena fatua, Rate 250 g/ha, 100%=total damage, 0%=no damage. How it is done:
(§1) Test—Glasshouse Assay for Herbicidal Activity
(§2) Seeds of a variety of monocotyledonous and dicotyledonous test plants are sown in standard soil in pots. The plants are cultivated for one day (for pre-emergence (PRE)) or for about 12 days (for post-emergence (POST)) under controlled conditions in a glasshouse (warm climate species at 24/18° C., cool climate species at 20/16° C., both at day/night; 16 hours light; 65% humidity).
(§3) The test plants are then grown on, in a glasshouse (greenhouse) under controlled conditions (warm climate species at 24/18° C., cool climate species at 20/16° C., both at day/night; 16 hours light; 65% humidity) and are watered twice daily. 15 days after application of the test herbicide (15 DAA) (for post-emergence), and 20 days after application of the test herbicide (20 DAA) (for pre-emergence), the test plants are evaluated visually, and an assessed percentage phytotoxicity score is given for each herbicidal application on each plant species (with 100%=total damage to plant; 0%=no damage to plant).
(§4) The plant species tested are as follows: Alopecurus myosuroides (ALOMY), Avena fatua (AVEFA), Lolium perenne (LOLPE), Echinochloa crus-galli (ECHCG).

Test [1] relates to Alopecurus myosuroides (ALOMY). The conditions noted are these: Alopecurus myosuroides, Rate 250 g/ha, 100%=total damage, 0%=no damage. How it is done: as §1, §2, §3, §4
Test [2] deals with Echinochloa crus-galli (ECHCG). The conditions noted are these: Echinochloa crus-galli, Rate 250 g/ha, 100%=total damage, 0%=no damage. How it is done:
as §1, §2, §3, §4

In the next test the test system is Lolium perenne (LOLPE). The conditions noted are these: Lolium perenne, Rate 250 g/ha, 100%=total damage, 0%=no damage. How it is done:
as §1, §2, §3, §4

Setting [3] is: post-emergence, 360 h, post-emergence, assessed visually 15 DAA, read-out: Post-emergence herbicidal activity (percentage phytotoxicity) AVEFA POST.
Where [4] appears, read: pre-emergence, 480 h, pre-emergence, assessed visually 20 DAA, read-out: Pre-emergence herbicidal activity (percentage phytotoxicity) AVEFA PRE.
The mark [5] stands for this setting: post-emergence, 360 h, post-emergence, assessed visually 15 DAA, read-out: Post-emergence herbicidal activity (percentage phytotoxicity) ALOMY POST.
Where [6] appears, read: pre-emergence, 480 h, pre-emergence, assessed visually 20 DAA, read-out: Pre-emergence herbicidal activity (percentage phytotoxicity) ALOMY PRE.
Where [7] appears, read: post-emergence, 360 h, post-emergence, assessed visually 15 DAA, read-out: Post-emergence herbicidal activity (percentage phytotoxicity) ECHCG POST.
[8] abbreviates: pre-emergence, 480 h, pre-emergence, assessed visually 20 DAA, read-out: Pre-emergence herbicidal activity (percentage phytotoxicity) ECHCG PRE.
[9] abbreviates: post-emergence, 360 h, post-emergence, assessed visually 15 DAA, read-out: Post-emergence herbicidal activity (percentage phytotoxicity) LOLPE POST.
The mark [10] stands for this setting: pre-emergence, 480 h, pre-emergence, assessed visually 20 DAA, read-out: Pre-emergence herbicidal activity (percentage phytotoxicity) LOLPE PRE.

Where two headings read alike, the source gives them in different places.

In the case of `CC#Cc1cc(C)c(C2C(=O)CC(CC(=O)NCCOC)C2=O)c(CC)c1` (centres unmarked) [Compound A49], the pest or weed control at 250 g/ha (in the test on Avena fatua (AVEFA) (setting [3]); in the test on Avena fatua (AVEFA) (setting [4]); in test [1] (setting [5]); in test [1] (setting [6]); in test [2] (setting [7]); in test [2] (setting [8])) was 100% each time. Further, the pest or weed control at 250 g/ha with Lolium perenne (LOLPE) (setting [9]) and in the test on Lolium perenne (LOLPE) (setting [10]) was 100% throughout.
As for `CC#Cc1cc(C)c(C2C(=O)CC(CC(=O)NC(C)(C)CC)C2=O)c(CC)c1` (centres unmarked) [Compound A50], the pest or weed control at 250 g/ha is 100% in the test with Avena fatua (AVEFA) (setting [3]); 100% in the test with Avena fatua (AVEFA) (setting [4]); 100% in test [1] (setting [5]); 100% in test [1] (setting [6]); 100% in test [2] (setting [7]); 90% in test [2] (setting [8]). The pest or weed control at 250 g/ha with Lolium perenne (LOLPE) (setting [9]) and in the test with Lolium perenne (LOLPE) (setting [10]) was 100% throughout.
Take `CC#Cc1cc(C)c(C2C(=O)CC(CC(=O)NCCCC)C2=O)c(CC)c1` (centres unmarked) [Compound A51]: the pest or weed control at 250 g/ha (in the test with Avena fatua (AVEFA) (setting [3]); with Avena fatua (AVEFA) (setting [4]); in test [1] (setting [5]); in test [1] (setting [6]); in test [2] (setting [7]); in test [2] (setting [8])) was 100% throughout. Further, the pest or weed control at 250 g/ha with Lolium perenne (LOLPE) (setting [9]) and with Lolium perenne (LOLPE) (setting [10]) was 100% throughout.
`CC#Cc1cc(C)c(C2C(=O)CC(CC(=O)NC3CCCC3)C2=O)c(CC)c1` (centres unmarked) [Compound A52]: the pest or weed control at 250 g/ha with Avena fatua (AVEFA) (setting [3]) stood at 100%; in the test on Avena fatua (AVEFA) (setting [4]), 90%; in test [1] (setting [5]) it was 100%; in test [1] (setting [6]) it was 100%; in test [2] (setting [7]) it was 100%; in test [2] (setting [8]), 90%. For the same molecule, the pest or weed control at 250 g/ha with Lolium perenne (LOLPE) (setting [9]) and in the test with Lolium perenne (LOLPE) (setting [10]) was 90% throughout.
In the case of `CC#Cc1cc(C)c(C2C(=O)CC(CC(=O)NCC(C)(C)C)C2=O)c(CC)c1` (centres unmarked) [Compound A53], the pest or weed control at 250 g/ha in the test on Avena fatua (AVEFA) (setting [3]) came out at 90%; in the test on Avena fatua (AVEFA) (setting [4]), 80%; in test [1] (setting [5]) it was 100%; in test [1] (setting [6]), 90%; in test [2] (setting [7]), 100%; in test [2] (setting [8]), 100%. Also, the pest or weed control at 250 g/ha with Lolium perenne (LOLPE) (setting [9]) and in the test with Lolium perenne (LOLPE) (setting [10]) was 90% in each case.
As to `CC#Cc1cc(C)c(C2C(=O)CC(CC(=O)NC(C)C)C2=O)c(CC)c1` (centres unmarked) [Compound A54], the pest or weed control at 250 g/ha (in the test with Avena fatua (AVEFA) (setting [3]); with Avena fatua (AVEFA) (setting [4]); in test [1] (setting [5]); in test [1] (setting [6]); in test [2] (setting [7]); in test [2] (setting [8])) was 100% in each case. In addition, the pest or weed control at 250 g/ha with Lolium perenne (LOLPE) (setting [9]) and in the test with Lolium perenne (LOLPE) (setting [10]) was 100% in each case.
For `CC#Cc1cc(C)c(C2C(=O)CC(CC(=O)NCc3ccsc3)C2=O)c(C)c1` (centres unmarked) [Compound A55], the pest or weed control at 250 g/ha in the test with Avena fatua (AVEFA) (setting [3]) was found to be 100%; in the test on Avena fatua (AVEFA) (setting [4]), 80%; in test [1] (setting [5]), 90%; in test [1] (setting [6]) it was 90%; in test [2] (setting [7]), 100%; in test [2] (setting [8]), 100%. Besides, the pest or weed control at 250 g/ha in the test on Lolium perenne (LOLPE) (setting [9]) and in the test on Lolium perenne (LOLPE) (setting [10]) was 90% in each case.
In the case of `C=CCCNC(=O)CC1CC(=O)C(c2c(C)cc(C#CC)cc2C)C1=O` (centres unmarked) [Compound A57], the pest or weed control at 250 g/ha was determined as 100% in the test with Avena fatua (AVEFA) (setting [3]); 90% in the test on Avena fatua (AVEFA) (setting [4]); 100% in test [1] (setting [5]); 100% in test [1] (setting [6]); 100% in test [2] (setting [7]); 100% in test [2] (setting [8]). Moreover, the pest or weed control at 250 g/ha in the test on Lolium perenne (LOLPE) (setting [9]) and in the test on Lolium perenne (LOLPE) (setting [10]) was 100% throughout.
Take `CC#Cc1cc(C)c(C2C(=O)CC(CC(=O)NCCC(F)(F)F)C2=O)c(C)c1` (centres unmarked) [Compound A58]: the pest or weed control at 250 g/ha (with Avena fatua (AVEFA) (setting [3]); in the test on Avena fatua (AVEFA) (setting [4]); in test [1] (setting [5]); in test [1] (setting [6]); in test [2] (setting [7]); in test [2] (setting [8])) was 100% in each case. For the same molecule, the pest or weed control at 250 g/ha in the test with Lolium perenne (LOLPE) (setting [9]) and with Lolium perenne (LOLPE) (setting [10]) was 90% each time.
With `CC#Cc1cc(C)c(C2C(=O)CC(CC(=O)NC(C)(C)CC)C2=O)c(C)c1` (centres unmarked) [Compound A60], the pest or weed control at 250 g/ha (in the test on Avena fatua (AVEFA) (setting [3]); with Avena fatua (AVEFA) (setting [4]); in test [1] (setting [5]); in test [1] (setting [6]); in test [2] (setting [7]); in test [2] (setting [8])) was 100% in each case. Moreover, the values for the pest or weed control at 250 g/ha in the test on Lolium perenne (LOLPE) (setting [9]) and in the test with Lolium perenne (LOLPE) (setting [10]) were 90% and 100%, respectively.
For the molecule `CC#Cc1cc(C)c(C2C(=O)CC(CC(=O)N(C)CCC)C2=O)c(C)c1` (centres unmarked) [Compound A61], the pest or weed control at 250 g/ha in the test on Avena fatua (AVEFA) (setting [3]) amounted to 100%; in the test on Avena fatua (AVEFA) (setting [4]) it was 90%; in test [1] (setting [5]), 100%; in test [1] (setting [6]), 100%; in test [2] (setting [7]), 100%; in test [2] (setting [8]) it was 100%. Moreover, the figures for the pest or weed control at 250 g/ha in the test with Lolium perenne (LOLPE) (setting [9]) and in the test with Lolium perenne (LOLPE) (setting [10]) were 90% and 100%, respectively.
For the molecule `CC#Cc1cc(C)c(C2C(=O)CC(CC(=O)NC3CCCC3)C2=O)c(C)c1` (centres unmarked) [Compound A62], the pest or weed control at 250 g/ha in the test with Avena fatua (AVEFA) (setting [3]) turned out to be 90%; in the test with Avena fatua (AVEFA) (setting [4]), 90%; in test [1] (setting [5]) it was 90%; in test [1] (setting [6]) it was 100%; in test [2] (setting [7]), 100%; in test [2] (setting [8]), 100%. In addition, the pest or weed control at 250 g/ha with Lolium perenne (LOLPE) (setting [9]) stood at 60%; in the test with Lolium perenne (LOLPE) (setting [10]) it was 100%.
As for `CC#Cc1cc(C)c(C2C(=O)CC(CC(=O)NCC3CC3)C2=O)c(C)c1` (centres unmarked) [Compound A63], the pest or weed control at 250 g/ha was 100% in the test on Avena fatua (AVEFA) (setting [3]); 90% in the test with Avena fatua (AVEFA) (setting [4]); 100% in test [1] (setting [5]); 100% in test [1] (setting [6]); 100% in test [2] (setting [7]); 100% in test [2] (setting [8]). The pest or weed control at 250 g/ha worked out at 90% with Lolium perenne (LOLPE) (setting [9]) and 100% in the test on Lolium perenne (LOLPE) (setting [10]).
Regarding `C=CCOCC(C)(C)NC(=O)CC1CC(=O)C(c2c(C)cc(C#CC)cc2C)C1=O` (centres unmarked) [Compound A64], the pest or weed control at 250 g/ha was 90% with Avena fatua (AVEFA) (setting [3]); 70% in the test with Avena fatua (AVEFA) (setting [4]); 90% in test [1] (setting [5]); 70% in test [1] (setting [6]); 100% in test [2] (setting [7]); 100% in test [2] (setting [8]). For the same molecule, the pest or weed control at 250 g/ha with Lolium perenne (LOLPE) (setting [9]) was 70%; in the test with Lolium perenne (LOLPE) (setting [10]), 80%.
As for `CC#Cc1cc(C)c(C2C(=O)CC(CC(=O)NCC(C)(C)C)C2=O)c(C)c1` (centres unmarked) [Compound A65], the pest or weed control at 250 g/ha stood at 90% in the test with Avena fatua (AVEFA) (setting [3]); 70% in the test with Avena fatua (AVEFA) (setting [4]); 90% in test [1] (setting [5]); 100% in test [1] (setting [6]); 100% in test [2] (setting [7]); 100% in test [2] (setting [8]). Further, the figures for the pest or weed control at 250 g/ha with Lolium perenne (LOLPE) (setting [9]) and with Lolium perenne (LOLPE) (setting [10]) were 80% and 90%, respectively.
In the case of `CC#Cc1cc(C)c(C2C(=O)CC(CC(=O)NC3CC3)C2=O)c(CC)c1` (centres unmarked) [Compound A66], the pest or weed control at 250 g/ha turned out to be 100% in the test on Avena fatua (AVEFA) (setting [3]); 100% in the test on Avena fatua (AVEFA) (setting [4]); 90% in test [1] (setting [5]); 100% in test [1] (setting [6]); 100% in test [2] (setting [7]); 100% in test [2] (setting [8]). Moreover, the pest or weed control at 250 g/ha in the test with Lolium perenne (LOLPE) (setting [9]) and with Lolium perenne (LOLPE) (setting [10]) was 100% each time.
